Test results: the NIST ThermoML archive (doi:10.1021/je300382a)

What was measured:
[1] = xn = mol fraction of the nth substance listed; conditions: Ring tensiometer
[2] = refractive index (Na D-line) (dimensionless); xn = mol fraction of the nth substance listed; conditions: 101 kPa, Liquid, Standard Abbe refractometry

CC(N)CN (stereo not given) [1,2-propanediamine] + O
Conditions | refractive index, 283.15 K | refractive index, 293.15 K | refractive index, 303.15 K | refractive index, 313.15 K | refractive index, 323.15 K | surface tension liquid-gas, 283.15 K [mN/m] | surface tension liquid-gas, 293.15 K [mN/m] | surface tension liquid-gas, 303.15 K [mN/m] | surface tension liquid-gas, 313.15 K [mN/m] | surface tension liquid-gas, 323.15 K [mN/m]
[1], x1 = 0.01 | – | – | – | – | – | 67.4 | 66.1 | 64.7 | 62.8 | 61
[1], x1 = 0.03 | – | – | – | – | – | 62.1 | 60.5 | 58.7 | 57.3 | 56
[1], x1 = 0.05 | – | – | – | – | – | 58.1 | 56.4 | 55 | 53.7 | 52.2
[1], x1 = 0.07 | – | – | – | – | – | 55 | 53.5 | 51.9 | 50.5 | 49.1
[1], x1 = 0.1 | – | – | – | – | – | 51.7 | 50.5 | 48.9 | 47.3 | 45.8
[1], x1 = 0.2 | – | – | – | – | – | 47.6 | 46.4 | 45 | 43.2 | 41.9
[1], x1 = 0.3 | – | – | – | – | – | 44.8 | 43.7 | 42.4 | 41 | 39.7
[1], x1 = 0.4 | – | – | – | – | – | 42.5 | 41.1 | 40.1 | 38.6 | 37.4
[1], x1 = 0.5 | – | – | – | – | – | 40.6 | 39.2 | 37.9 | 36.6 | 35.5
[1], x1 = 0.6 | – | – | – | – | – | 38.3 | 37.2 | 36.1 | 35.1 | 33.9
[1], x1 = 0.7 | – | – | – | – | – | 37.5 | 36.4 | 35.2 | 34.1 | 32.9
[1], x1 = 0.8 | – | – | – | – | – | 36.2 | 35.1 | 33.9 | 32.7 | 31.7
[1], x1 = 0.9 | – | – | – | – | – | 35.4 | 34.2 | 33 | 31.9 | 30.7
[1], x1 = 1 | – | – | – | – | – | 35 | 33.8 | 32.7 | 31.4 | 30.3
[2], x1 = 0.01 | 1.34 | 1.3392 | 1.3381 | 1.3366 | 1.3352 | – | – | – | – | –
[2], x1 = 0.03 | 1.3522 | 1.3512 | 1.3499 | 1.3488 | 1.3478 | – | – | – | – | –
[2], x1 = 0.05 | 1.3635 | 1.3621 | 1.3604 | 1.3592 | 1.3579 | – | – | – | – | –
[2], x1 = 0.07 | 1.374 | 1.3723 | 1.3703 | 1.3685 | 1.3667 | – | – | – | – | –
[2], x1 = 0.1 | 1.3882 | 1.3859 | 1.3835 | 1.3816 | 1.3797 | – | – | – | – | –
[2], x1 = 0.2 | 1.4209 | 1.4173 | 1.4137 | 1.4111 | 1.4085 | – | – | – | – | –
[2], x1 = 0.3 | 1.4356 | 1.4317 | 1.4273 | 1.4236 | 1.4208 | – | – | – | – | –
[2], x1 = 0.4 | 1.4448 | 1.4405 | 1.4363 | 1.4321 | 1.4279 | – | – | – | – | –
[2], x1 = 0.5 | 1.4486 | 1.4443 | 1.4401 | 1.4356 | 1.4311 | – | – | – | – | –
[2], x1 = 0.6 | 1.4504 | 1.4459 | 1.4415 | 1.4369 | 1.4323 | – | – | – | – | –
[2], x1 = 0.7 | 1.4511 | 1.4466 | 1.4418 | 1.4374 | 1.4325 | – | – | – | – | –
[2], x1 = 0.8 | 1.4515 | 1.4468 | 1.442 | 1.4371 | 1.4323 | – | – | – | – | –
[2], x1 = 0.9 | 1.4512 | 1.4465 | 1.4415 | 1.4368 | 1.4319 | – | – | – | – | –
[2], x1 = 1 | 1.451 | 1.4458 | 1.4409 | 1.4362 | 1.4314 | – | – | – | – | –
